Among the data in patent US20240360081A1, “SULFONAMIDE OREXIN RECEPTOR AGONISTS AND USES THEREOF” (Jazz Pharmaceuticals Ireland Limited, priority 2021, published 2024) are EC50 values, retold here.

Structures are written as SMILES.

The test deals with T1, human recombinant OX2 (hOX2) receptor expressed in CHO cells (Homo sapiens, UniProt O43614).
T1 construct: host or cells: CHO cells (hOX2-CHO)
T1 sequence (O43614 1-444): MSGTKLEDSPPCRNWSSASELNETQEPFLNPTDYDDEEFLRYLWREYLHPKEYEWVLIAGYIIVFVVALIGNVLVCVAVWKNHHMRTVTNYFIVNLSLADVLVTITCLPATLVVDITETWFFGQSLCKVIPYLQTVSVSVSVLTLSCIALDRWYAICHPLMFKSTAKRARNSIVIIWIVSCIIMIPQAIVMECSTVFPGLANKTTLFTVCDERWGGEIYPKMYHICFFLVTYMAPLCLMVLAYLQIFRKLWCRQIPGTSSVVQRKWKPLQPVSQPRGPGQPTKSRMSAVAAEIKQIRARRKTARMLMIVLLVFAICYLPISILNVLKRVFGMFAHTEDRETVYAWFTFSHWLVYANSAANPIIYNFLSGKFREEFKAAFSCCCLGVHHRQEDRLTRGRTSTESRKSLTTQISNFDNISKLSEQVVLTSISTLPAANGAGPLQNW
Briefly: IP-1 accumulation assay (IP-One HTRF) in hOX2-CHO cells. It counts as cell-based. The following applies: 60 min at 37° C., 11 points CRC, response as % of maximal OX-A response. In short, it runs like this:
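CHO cells expressing hOX2, 20,000 cells/well in HBSS with 20 mM HEPES pH 7.4, 50 mM LiCl, 0.1% BSA; 11-point compound series, 0.5% DMSO final, 60 min at 37 °C. IP-1 by HTRF (665/615 ratio) after 60 min at room temperature, as % of maximal OX-A response; EC50 by four-parameter logistic fit, mean of ≥2 experiments in duplicate.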
On to `CS(=O)(=O)NCC(CO[C@H]1CC[C@@H](c2ccccc2)CC1)n1cccc(C#N)c1=O` (stereo partly drawn) [Example 2e, N-[2-(3-cyano-2-oxo-1,2-dihydropyridin-1-yl)-3-{[(CIS)-4-phenylcyclohexyl]oxy}propyl]methanesulfonamide], for which the EC50 was in the range of 1000 to 10000 nM.
Under `CCc1cccn(C(CNS(C)(=O)=O)CO[C@H]2CC[C@@H](c3ccccc3)CC2)c1=O` (single isomer, unassigned; isomer 1) [Example 2a, (R or S) N-[2-(3-ethyl-2-oxo-1,2-dihydropyridin-1-yl)-3-{[(CIS)-4-phenylcyclohexyl]oxy}propyl]methanesulfonamide-Isomer 1] stands over 10000 nM; under `Cc1cc(C)c(=O)n(C(CNS(=O)(=O)C2CC2)CO[C@H]2CC[C@@H](c3cccc(F)c3)CC2)c1` (single isomer, unassigned; isomer 2) [Example 2an, (S or R) N-[2-(3,5-dimethyl-2-oxo-1,2-dihydropyridin-1-yl)-3-{[(CIS)-4-(3-fluorophenyl)cyclohexyl]oxy}propyl]cyclopropanesulfonamide-Isomer 2], 1000 to 10000 nM.
The figure for `Cc1cc(C(CNS(=O)(=O)CF)CO[C@H]2CC[C@@H](c3cccc(F)c3)CC2)c(=O)n(C)c1` (stereo partly drawn) [Example 5m, N-[2-(1,5-dimethyl-2-oxo-1,2-dihydropyridin-3-yl)-3-{[(CIS)-4-(3-fluorophenyl)cyclohexyl]oxy}propyl]-1-fluoromethanesulfonamide] is under 100 nM; for `Cc1cc(C(CNS(C)(=O)=O)CO[C@H]2CC[C@@H](c3cccc(F)c3)CC2)c(=O)n(C)c1` (single isomer, unassigned; isomer 1) [Example 5c, (R or S) N-[2-(1,5-dimethyl-2-oxo-1,2-dihydropyridin-3-yl)-3-{[(CIS)-4-(3-fluorophenyl)cyclohexyl]oxy}propyl]methanesulfonamide—Isomer 1] it is under 100 nM; for `CCc1cccn(C(CNS(C)(=O)=O)CO[C@H]2CC[C@@H](c3ccccc3)CC2)c1=O` (stereo partly drawn) [Example 2, N-[2-(3-ethyl-2-oxo-1,2-dihydropyridin-1-yl)-3-{[(CIS)-4-phenylcyclohexyl]oxy}propyl]methanesulfonamide] it is 1000 to 10000 nM.
The figure for `Cc1cc(C(CNS(C)(=O)=O)CO[C@H]2CC[C@@H](c3cccc(F)c3)CC2)c(=O)n(CC(F)F)c1` (stereo partly drawn) [Example 5w, N-{2-[1-(2,2-difluoroethyl)-5-methyl-2-oxo-1,2-dihydropyridin-3-yl]-3-{[(CIS)-4-(3-fluorophenyl)cyclohexyl]oxy}propyl}methanesulfonamide] is under 100 nM; for `Cc1cc(C)c(=O)n(C(CNS(C)(=O)=O)CO[C@H]2CC[C@@H](c3cccc(F)c3)CC2)c1` (single isomer, unassigned; isomer 2) [Example 2ag, (S or R) N-[2-(3,5-dimethyl-2-oxo-1,2-dihydropyridin-1-yl)-3-{[(CIS)-4-(3-fluorophenyl)cyclohexyl]oxy}propyl]methanesulfonamide-Isomer 2] it is 1000 to 10000 nM; for `Cc1cc(C(CNS(C)(=O)=O)CO[C@H]2CC[C@@H](c3ccccc3)CC2)c(=O)n(C)c1` (stereo partly drawn) [Example 5a, N-[2-(1,5-dimethyl-2-oxo-1,2-dihydropyridin-3-yl)-3-{[(CIS)-4-phenylcyclohexyl]oxy}propyl]methanesulfonamide] it is 1000 to 10000 nM.
In the case of `Cc1cccn(C(CNS(C)(=O)=O)CO[C@H]2CC[C@@H](c3ccccc3)CC2)c1=O` (single isomer, unassigned; isomer 2) [Example 1e, (S or R) N-[(2R)-2-(3-methyl-2-oxo-1,2-dihydropyridin-1-yl)-3-{[(CIS)-4-phenylcyclo-hexyl]oxy}propyl] methane-sulfonamide- Isomer 2], the EC50 fell in the range of 100 to 1000 nM.
Under `Cc1cc(C)c(=O)n(C(CNS(=O)(=O)N(C)C)CO[C@H]2CC[C@@H](C3CC3)CC2)c1` (stereo partly drawn) [Example 2bc, 1-{1-[(dimethylsulfamoyl)amino]-3-{[(CIS)-4-cyclopropylcyclohexyl]oxy}propan-2-yl}-3,5-dimethyl-1,2-dihydropyridin-2-one] stands 100 to 1000 nM; under `Cc1cc(C)c(=O)n(C(CNS(=O)(=O)N(C)C)CO[C@H]2CC[C@@H](c3cccc(F)c3)CC2)c1` (stereo partly drawn) [Example 2aq, 1-{1-[(dimethylsulfamoyl)amino]-3-{[(CIS)-4-(3-fluorophenyl)cyclohexyl]oxy}propan-2-yl}-3,5-dimethyl-1,2-dihydropyridin-2-one], under 100 nM; under `CS(=O)(=O)NCC(CO[C@H]1CC[C@@H](c2ccccc2)CC1)n1ccccc1=O` (single isomer, unassigned; isomer 2) [Example 1b, (S or R) N-[2-(2-oxo-1,2-dihydropyridin-1-yl)-3-{[(CIS)-4-phenylcyclo-hexyl]oxy}propyl] methane-sulfonamide- Isomer 2], over 10000 nM.
As to `Cc1cc(C)c(=O)n(C(CNS(C)(=O)=O)CO[C@H]2CC[C@@H](c3ccccc3)CC2)c1` (single isomer, unassigned; isomer 1) [Example 2t, (R or S) N-[2-(3,5-dimethyl-2-oxo-1,2-dihydropyridin-1-yl)-3-{[(CIS)-4-phenylcyclohexyl]oxy}propyl]methanesulfonamide-Isomer 1], the EC50 is under 100 nM.
The figure for `Cc1ccc(=O)n(C(CNS(C)(=O)=O)CO[C@H]2CC[C@@H](c3ccccc3)CC2)c1` (single isomer, unassigned; isomer 2) [Example 2k, (S or R) N-[2-(5-methyl-2-oxo-1,2-dihydropyridin-1-yl)-3-{[(CIS)-4-phenylcyclohexyl]oxy}propyl]methanesulfonamide-Isomer 2] is over 10000 nM; for `CS(=O)(=O)NCC(CO[C@H]1CC[C@@H](c2ccccc2)CC1)n1ccc2cccnc21` (stereo partly drawn) [Example 2z, N-(2-{1H-pyrrolo[2,3-b]pyridin-1-yl}-3-{[(CIS)-4-phenylcyclohexyl]oxy}propyl)methanesulfonamide] it is 1000 to 10000 nM; for `Cc1cc(C(CNS(C)(=O)=O)CO[C@H]2CC[C@@H](c3cccc(F)c3)CC2)c(=O)n(C(F)F)c1` (single isomer, unassigned; isomer 1) [Example 5y, (R or S) N-[2-[1-(difluoromethyl)-5-methyl-2-oxo-1,2-dihydropyridin-3-yl]-3-{[(CIS)-4-(3-fluorophenyl)cyclohexyl]oxy}propyl]methanesulfonamide—Isomer 1] it is under 100 nM.
Turning to `Cc1cc(C(CNS(C)(=O)=O)COC2CCN(c3ncc(F)cn3)CC2)c(=O)n(C)c1` (centres unmarked) [Example 5p, N-[2-(1,5-dimethyl-2-oxo-1,2-dihydropyridin-3-yl)-3-{[1-(5-fluoropyrimidin-2-yl)piperidin-4-yl]oxy}propyl]methanesulfonamide], the EC50 is over 10000 nM.
The figure for `CS(=O)(=O)NCC(Cc1cccc(-c2ccccc2)c1)n1ccccc1=O` (centres unmarked) [Example 8a, N-(3-{[1,1′-biphenyl]-3-yl}-2-(2-oxo-1,2-dihydropyridin-1-yl)propyl)methanesulfonamide] is over 10000 nM.
Under `COCCS(=O)(=O)NCC(CO[C@H]1CC[C@@H](c2cccc(F)c2)CC1)n1cc(C)cc(C)c1=O` (stereo partly drawn) [Example 2ax, N-[2-(3,5-dimethyl-2-oxo-1,2-dihydropyridin-1-yl)-3-{[(CIS)-4-(3-fluorophenyl)cyclohexyl]oxy}propyl]-2-methoxyethane-1-sulfonamide] stands under 100 nM.
